Experimental data reported in patent publication US20250163051A1, “PYRIMIDO AROMATIC RING COMPOUND AND USE THEREOF IN DRUG” (SUNSHINE LAKE PHARMA CO., LTD., priority 2022, published 2025).
Like-named read-outs stand apart in the source and are kept apart here.

How the values were obtained:
hTLR8 = biological target: T1, hTLR8 (Homo sapiens, UniProt Q9NR97); experiment: Agonistic activity on human TLR8 in HEK-Blue hTLR8 cells (QUANTI-Blue); format: cell-based; settings: 24 h incubation, OD650, read-out: hTLR 8 EC50
T1 construct: expressed in transfected cells; host or cells: HEK-Blue hTLR8 cells
T1 sequence (Q9NR97 27-1041): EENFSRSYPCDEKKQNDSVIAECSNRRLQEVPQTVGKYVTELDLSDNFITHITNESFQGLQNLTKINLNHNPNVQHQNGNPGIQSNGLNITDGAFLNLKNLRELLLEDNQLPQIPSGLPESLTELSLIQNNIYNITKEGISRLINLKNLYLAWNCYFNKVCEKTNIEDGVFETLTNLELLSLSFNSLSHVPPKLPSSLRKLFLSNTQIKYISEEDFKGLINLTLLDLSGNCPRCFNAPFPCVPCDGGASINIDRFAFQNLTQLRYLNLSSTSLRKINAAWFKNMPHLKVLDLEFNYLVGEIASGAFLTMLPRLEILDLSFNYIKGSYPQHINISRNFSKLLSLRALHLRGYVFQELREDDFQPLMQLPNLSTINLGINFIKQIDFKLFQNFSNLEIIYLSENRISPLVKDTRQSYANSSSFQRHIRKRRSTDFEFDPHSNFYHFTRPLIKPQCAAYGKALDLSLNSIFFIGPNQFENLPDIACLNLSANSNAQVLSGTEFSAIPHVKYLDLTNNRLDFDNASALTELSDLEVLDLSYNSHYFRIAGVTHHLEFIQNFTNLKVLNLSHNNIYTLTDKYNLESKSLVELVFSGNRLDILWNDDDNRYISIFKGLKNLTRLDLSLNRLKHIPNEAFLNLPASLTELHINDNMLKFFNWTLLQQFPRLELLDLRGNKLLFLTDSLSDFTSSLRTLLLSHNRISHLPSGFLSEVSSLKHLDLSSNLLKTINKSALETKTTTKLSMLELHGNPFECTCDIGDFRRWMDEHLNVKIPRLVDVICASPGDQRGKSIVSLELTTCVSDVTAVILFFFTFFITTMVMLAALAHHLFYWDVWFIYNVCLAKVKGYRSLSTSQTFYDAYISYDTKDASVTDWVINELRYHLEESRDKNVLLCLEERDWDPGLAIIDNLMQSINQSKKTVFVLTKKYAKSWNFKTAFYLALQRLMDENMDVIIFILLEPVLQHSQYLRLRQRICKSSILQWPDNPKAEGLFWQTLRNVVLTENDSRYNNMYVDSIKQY
Method: (§5) Purpose: HEK-Blue™ hTLR7 and HEK-Blue™ hTLR8 cells were used to detect the agonist and cytotoxic activities of compounds against hTLR7 and hTLR8.
(§6) The experimental steps were as shown below: • 1) Preparation of compound: The compound was prepared into a 20 mM stock solution with DMSO, and then the stock solution was diluted 3-fold in a gradient and added to a 96-well plate, for a total of 10 concentrations, with duplicate wells for each concentration. For negative control wells, 0.5 μL DMSO was added to each well. The final DMSO concentration was 0.5%. • 2) HEK-Blue™ hTLR7 or HEK-Blue™ hTLR8 cells were suspended in culture medium and then seeded into 96-well plates containing compounds at a cell count of 50,000 per well. The compounds and cells were incubated for 24 h at 37° C., 5% Co2. • 3) QUANTI-Blue was used for the detection solution: to a mixture of 1 mL of QB reagent and 1 mL of QB buffer was added 98 mL of sterile water, the mixture was mixed and dissolved, and then placed at room temperature for 10 min. • 4) Activity test of the compound: 20 μL of the culture supernatant in step 2) was added to each well of a 96-well plate containing 180 μL of QUANTI-Blue detection solution. After incubation at 37° C. for 1 h, the absorbance at 650 nm (OD650) was detected using a multifunctional microplate reader Flextation III. • 5) Detection of cell activity: The chemiluminescent signal (RLU) was detected using the multifunctional microplate reader Flextation III according to the instructions of Celltiter-Glo. • 6) Data analysis
Activity of compounds: OD650 values were analyzed using GraphPad Prism software, and the compound dose-effect curves were fitted to calculate the EC50 values of the compounds.

in vitro = settings: human
Method: as §5, §6
(§7) Detection of cell activity: The calculation formula for cell activity % is as follows.
(§8) The cell activity % values were analyzed using GraphPad Prism software, and the compound dose-effect curves were fitted to calculate the CC50 values of the compounds.
(§9) Cell activity %=RLU compound/RLU DMSO Control*100%

hTLR7 = biological target: T2, hTLR7 (Homo sapiens, UniProt Q9NYK1); experiment: Agonistic activity on human TLR7 in HEK-Blue hTLR7 cells (QUANTI-Blue); format: cell-based; settings: 24 h incubation, OD650, read-out: hTLR 7 EC50
T2 construct: expressed in transfected cells; host or cells: HEK-Blue hTLR7 cells
T2 sequence (Q9NYK1 27-1049): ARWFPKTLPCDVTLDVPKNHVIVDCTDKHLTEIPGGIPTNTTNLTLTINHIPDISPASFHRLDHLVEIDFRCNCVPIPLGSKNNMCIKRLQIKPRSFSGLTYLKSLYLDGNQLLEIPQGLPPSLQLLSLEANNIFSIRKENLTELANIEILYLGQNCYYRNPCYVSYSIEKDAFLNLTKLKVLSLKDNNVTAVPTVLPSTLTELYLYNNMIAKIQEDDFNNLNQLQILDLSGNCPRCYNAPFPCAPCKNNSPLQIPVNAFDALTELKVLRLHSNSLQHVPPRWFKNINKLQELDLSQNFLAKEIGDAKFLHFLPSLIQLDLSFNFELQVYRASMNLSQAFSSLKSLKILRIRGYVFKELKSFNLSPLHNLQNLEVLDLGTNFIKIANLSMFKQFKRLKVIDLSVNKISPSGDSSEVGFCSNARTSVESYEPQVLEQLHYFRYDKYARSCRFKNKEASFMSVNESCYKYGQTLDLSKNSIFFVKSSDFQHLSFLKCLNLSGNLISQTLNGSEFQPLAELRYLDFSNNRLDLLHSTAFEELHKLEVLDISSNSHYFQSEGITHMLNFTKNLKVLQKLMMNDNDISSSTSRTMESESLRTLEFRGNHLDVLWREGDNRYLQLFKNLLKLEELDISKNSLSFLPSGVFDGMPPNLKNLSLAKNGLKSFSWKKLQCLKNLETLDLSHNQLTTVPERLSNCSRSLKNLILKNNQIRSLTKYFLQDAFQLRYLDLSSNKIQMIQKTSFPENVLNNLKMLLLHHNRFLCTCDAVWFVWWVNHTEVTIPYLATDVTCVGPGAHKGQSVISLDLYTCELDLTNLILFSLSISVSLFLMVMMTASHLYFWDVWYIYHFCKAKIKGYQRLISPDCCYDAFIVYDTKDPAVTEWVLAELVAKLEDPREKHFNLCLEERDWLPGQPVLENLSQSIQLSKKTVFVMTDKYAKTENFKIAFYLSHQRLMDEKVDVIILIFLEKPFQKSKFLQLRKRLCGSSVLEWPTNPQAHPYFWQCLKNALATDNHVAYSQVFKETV

CYP2B6 = experiment: Induction of CYP2B6 in frozen human hepatocytes; format: in vitro ADME; settings: 72 h induction, concentration and readout not stated; for CYP2B6 Induction percentage relative to positive control (%): positive control Phenobarbital
Method: (§1) Experimental purpose: Using frozen human hepatocytes as the test system, the induction effects of the test substances on CYP1A2, CYP2B6 and CYP3A4 were evaluated from two aspects of enzyme activity and mRNA level.
(§2) Experimental method: 24 hours after cell plating, induction was started by adding medium containing the test compound (test concentrations were 10, 1, and 0.1 μM), and fresh drug-containing medium was replaced every 24 hours. After 72 hours of induction, the medium was replaced with medium containing CYP1A2, CYP2B6, and CYP3A4 specific substrates for 30 minutes of incubation. 100 μL was taken for treatment, and the labeled metabolites of the substrates were detected to evaluate the enzyme activity level. Finally, the cells were lysed and reverse transcribed, and the expression levels of CYP1A2, CYP2B6 and CYP3A4 genes in the cells were evaluated by real-time quantitative PCR.
(§3) The induction fold of the test compound compared with the blank control and the induction percentage of the test compound compared with the positive control were used as the basis for evaluating the induction potential of the test compound. Among them, the positive control for CYP1A2 is Omeprazole; the positive control for CYP2B6 is Phenobarbital; the positive control for CYP3A4 is Rifampicin.

CYP3A4 [1] = experiment: Induction of CYP3A4 in frozen human hepatocytes; format: in vitro ADME; settings: 72 h induction, concentration and readout not stated; for CYP3A4 Induction percentage relative to positive control (%): positive control Rifampicin
Method: as §1, §2, §3

CYP1A2 [2] = experiment: Induction of CYP1A2 in frozen human hepatocytes; format: in vitro ADME; settings: 72 h induction, concentration and readout not stated
Method: as §1, §2, §3

hERG channel = biological target: T3, hERG channel (Homo sapiens, UniProt Q12809); experiment: hERG channel current in HEK293 cells, automated patch clamp; format: cell-based; settings: HEK-293 cells stably expressing hERG, whole-cell patch clamp, 0.3-30 μM
T3 construct: expressed in transfected cells; host or cells: HEK-293 cells stably expressing hERG
T3 sequence (Q12809 whole entry): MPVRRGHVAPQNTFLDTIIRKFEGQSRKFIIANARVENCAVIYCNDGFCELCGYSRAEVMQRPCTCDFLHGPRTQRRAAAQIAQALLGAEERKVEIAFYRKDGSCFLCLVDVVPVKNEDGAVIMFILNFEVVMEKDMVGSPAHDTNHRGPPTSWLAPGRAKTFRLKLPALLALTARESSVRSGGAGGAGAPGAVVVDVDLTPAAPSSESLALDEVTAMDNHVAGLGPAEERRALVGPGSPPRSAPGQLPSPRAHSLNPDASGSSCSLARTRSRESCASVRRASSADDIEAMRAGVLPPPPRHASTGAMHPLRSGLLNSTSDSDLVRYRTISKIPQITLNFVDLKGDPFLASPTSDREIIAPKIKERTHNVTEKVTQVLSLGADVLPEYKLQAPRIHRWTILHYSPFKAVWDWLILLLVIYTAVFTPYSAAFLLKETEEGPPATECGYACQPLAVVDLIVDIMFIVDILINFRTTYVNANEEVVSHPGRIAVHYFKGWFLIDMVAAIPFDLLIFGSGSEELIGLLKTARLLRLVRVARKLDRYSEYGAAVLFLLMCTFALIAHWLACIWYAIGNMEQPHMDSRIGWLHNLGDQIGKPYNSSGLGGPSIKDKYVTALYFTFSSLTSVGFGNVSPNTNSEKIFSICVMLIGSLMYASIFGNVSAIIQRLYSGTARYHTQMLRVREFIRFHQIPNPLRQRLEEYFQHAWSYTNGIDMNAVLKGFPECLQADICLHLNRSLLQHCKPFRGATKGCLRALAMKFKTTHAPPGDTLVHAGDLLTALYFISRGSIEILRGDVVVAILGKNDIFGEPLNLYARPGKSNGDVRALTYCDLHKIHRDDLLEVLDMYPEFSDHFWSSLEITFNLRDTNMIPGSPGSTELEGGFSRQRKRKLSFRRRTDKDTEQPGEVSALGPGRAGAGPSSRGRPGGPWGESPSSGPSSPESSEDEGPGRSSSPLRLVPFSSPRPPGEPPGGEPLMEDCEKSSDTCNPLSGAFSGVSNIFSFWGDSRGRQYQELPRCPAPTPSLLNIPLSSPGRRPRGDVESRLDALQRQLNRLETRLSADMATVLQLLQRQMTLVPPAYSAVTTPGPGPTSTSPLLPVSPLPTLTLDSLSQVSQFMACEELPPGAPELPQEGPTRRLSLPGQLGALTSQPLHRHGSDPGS
Method: Test 2: Detection of the Effect of Compounds on hERG Channel Currents Stably Expressed in HEK293 Cells Using Automated Patch Clamp
Experimental purpose: The concentration-effect relationship of the blocking effect of the compounds on hERG channels was determined using the patch clamp technique and HEK-293 cells stably expressing hERG channels to evaluate their risk of inhibitory effect on cardiac hERG potassium channels.
Experimental method: hERG cells were clamped using the patch clamp technique to form a high-resistance seal and then the membrane was broken. The whole-cell recording mode was used to record the hERG current. Each drug concentration was set to be administered twice for at least 5 minutes. The test concentrations were 0.3 μM, 1 μM, 3 μM, 10 μM and 30 μM, and the changes of the test compounds on hERG current were observed.

[3] = Cell toxicity (Celltiter-Glo) in HEK-Blue hTLR8 cells; settings: human
Method: as §5, §6, §7, §8, §9

CYP1A2 [4] = biological target: T4, CYP1A2 (Homo sapiens, UniProt P05177); experiment: Inhibition of human liver microsomal CYP1A2; format: in vitro ADME; settings: human liver microsomes, 10 μM test substance; read-out: Relative inhibition rate (%) CYP1A2
T4 construct: from tissue; host or cells: human liver microsomes
T4 sequence (P05177 1-516): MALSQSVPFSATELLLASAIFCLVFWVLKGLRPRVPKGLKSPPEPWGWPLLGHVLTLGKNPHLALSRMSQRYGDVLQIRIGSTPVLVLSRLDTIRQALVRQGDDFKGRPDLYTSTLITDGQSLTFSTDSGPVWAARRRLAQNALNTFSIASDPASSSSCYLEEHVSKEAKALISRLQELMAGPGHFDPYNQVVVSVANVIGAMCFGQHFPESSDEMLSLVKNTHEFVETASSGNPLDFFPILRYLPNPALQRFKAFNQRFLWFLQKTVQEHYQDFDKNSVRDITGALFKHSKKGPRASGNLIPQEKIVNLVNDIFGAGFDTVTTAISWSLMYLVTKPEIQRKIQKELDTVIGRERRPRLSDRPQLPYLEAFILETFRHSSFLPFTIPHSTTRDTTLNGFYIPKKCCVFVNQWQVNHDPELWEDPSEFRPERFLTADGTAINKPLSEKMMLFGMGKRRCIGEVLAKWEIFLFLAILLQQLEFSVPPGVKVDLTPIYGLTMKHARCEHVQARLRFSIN
Method: (§4) Experimental purpose: The inhibitory effects of the test compounds on the major metabolizing enzymes CYP1A2, CYP2C19, CYP2D6 and CYP3A4 in microsomes were evaluated using the human liver microsomal system. Experimental method: The test substance was incubated with a suspension of human liver microsomes containing cytochrome P450 enzymes CYP1A2, CYP2C19, CYP2D6 and CYP3A4 at a concentration of 10 μM in the final incubation system. The known substrates were metabolized by the corresponding single enzymes to generate specific metabolites, and the metabolites were determined by UPLC-MS/MS method. The relative inhibition rate (%) was calculated by the percentage reduction of metabolite production by the test compound and solvent DMSO in the same time period. N is the concentration value of the probe substrate metabolite and it is assumed that the […] with or without inhibitor at 0 min is 0. N+inh is the metabolite concentration in the group with inhibitor, and Nveh is the metabolite concentration in the group without inhibitor. The results of the inhibition test of the compounds of the present invention on human liver microsomal CYP enzymes are shown in Table C.

CYP3A4 [5] = biological target: T5, CYP3A4 (Homo sapiens, UniProt P08684); experiment: Inhibition of human liver microsomal CYP3A4; format: in vitro ADME; settings: human liver microsomes, 10 μM test substance
T5 construct: from tissue; host or cells: human liver microsomes
T5 sequence (P08684 whole entry): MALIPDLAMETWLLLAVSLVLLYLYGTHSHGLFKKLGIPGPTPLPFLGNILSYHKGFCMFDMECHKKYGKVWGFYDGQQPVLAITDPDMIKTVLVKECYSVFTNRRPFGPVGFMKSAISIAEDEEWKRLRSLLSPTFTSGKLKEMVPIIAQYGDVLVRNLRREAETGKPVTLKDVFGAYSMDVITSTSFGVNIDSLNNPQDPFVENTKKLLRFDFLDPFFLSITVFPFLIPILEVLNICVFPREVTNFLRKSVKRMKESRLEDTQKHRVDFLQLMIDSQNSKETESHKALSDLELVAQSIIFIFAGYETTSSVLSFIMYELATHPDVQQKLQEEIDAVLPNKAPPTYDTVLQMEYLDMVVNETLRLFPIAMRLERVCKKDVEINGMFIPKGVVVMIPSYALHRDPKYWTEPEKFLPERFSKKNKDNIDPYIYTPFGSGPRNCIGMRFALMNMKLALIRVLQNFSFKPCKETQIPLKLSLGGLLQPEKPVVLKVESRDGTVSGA
Method: as §4

CYP2D6 = biological target: T6, CYP2D6 (Homo sapiens, UniProt P10635); experiment: Inhibition of human liver microsomal CYP2D6; format: in vitro ADME; settings: human liver microsomes, 10 μM test substance; read-out: Relative inhibition rate (%) CYP2D6
T6 construct: from tissue; host or cells: human liver microsomes
T6 sequence (P10635 whole entry): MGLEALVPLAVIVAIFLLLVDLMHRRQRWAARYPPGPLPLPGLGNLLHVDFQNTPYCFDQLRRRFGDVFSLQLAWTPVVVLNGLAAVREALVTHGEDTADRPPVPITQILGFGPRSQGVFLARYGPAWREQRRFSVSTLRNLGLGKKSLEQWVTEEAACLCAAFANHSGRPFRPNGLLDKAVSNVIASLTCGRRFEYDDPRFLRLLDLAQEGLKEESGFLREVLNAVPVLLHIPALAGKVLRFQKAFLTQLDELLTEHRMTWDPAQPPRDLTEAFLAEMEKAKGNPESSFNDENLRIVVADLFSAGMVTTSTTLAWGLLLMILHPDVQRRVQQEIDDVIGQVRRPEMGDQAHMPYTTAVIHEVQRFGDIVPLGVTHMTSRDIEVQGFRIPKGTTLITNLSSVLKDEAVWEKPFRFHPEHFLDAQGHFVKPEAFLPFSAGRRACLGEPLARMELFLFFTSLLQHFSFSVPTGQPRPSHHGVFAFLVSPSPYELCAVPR
Method: as §4

CYP2C19 = biological target: T7, CYP2C19 (Homo sapiens, UniProt P33261); experiment: Inhibition of human liver microsomal CYP2C19; format: in vitro ADME; settings: human liver microsomes, 10 μM test substance; read-out: Relative inhibition rate (%) CYP2C19
T7 construct: from tissue; host or cells: human liver microsomes
T7 sequence (P33261 whole entry): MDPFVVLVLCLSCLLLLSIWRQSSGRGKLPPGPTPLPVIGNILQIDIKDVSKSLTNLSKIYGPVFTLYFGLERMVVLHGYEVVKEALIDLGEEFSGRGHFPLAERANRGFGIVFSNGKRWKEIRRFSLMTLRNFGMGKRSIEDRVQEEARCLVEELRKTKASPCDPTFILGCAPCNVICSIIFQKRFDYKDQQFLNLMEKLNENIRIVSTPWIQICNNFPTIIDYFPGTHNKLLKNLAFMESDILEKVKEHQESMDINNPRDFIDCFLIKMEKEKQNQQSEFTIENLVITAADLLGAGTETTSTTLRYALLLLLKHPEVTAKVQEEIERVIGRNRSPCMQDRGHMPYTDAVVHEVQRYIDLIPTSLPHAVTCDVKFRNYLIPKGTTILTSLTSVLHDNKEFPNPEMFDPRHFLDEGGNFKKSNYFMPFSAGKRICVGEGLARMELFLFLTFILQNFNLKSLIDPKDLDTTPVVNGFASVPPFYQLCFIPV
Method: as §4

SMILES | EC50 (hTLR8) [µM] | CC50 at 24 h (in vitro) [µM] | EC50 (hTLR7) [µM] | CYP2B6 Induction fold relative to blank control (CYP2B6) | CYP2B6 Induction percentage relative to positive control (%) (CYP2B6) | CYP3A4 Induction fold relative to blank control (CYP3A4 [1]) | CYP3A4 Induction percentage relative to positive control (%) (CYP3A4 [1]) | CYP1A2 Induction fold relative to blank control (CYP1A2 [2]) | IC50 (hERG channel) [µM] | CC50 at 24 h [3] [µM] | inhibition at 10 µM (CYP1A2 [4]) [%] | inhibition at 10 µM (CYP3A4 [5]; probe Midazolam, substrate Midazolam, read-out: Relative inhibition rate (%) CYP3A4 (Midazolam)) [%] | inhibition at 10 µM (CYP3A4 [5]; probe Testosterone, substrate Testosterone, read-out: Relative inhibition rate (%) CYP3A4 (Testosterone)) [%] | inhibition at 10 µM (CYP2D6) [%] | inhibition at 10 µM (CYP2C19) [%]
CCCC[C@](C)(CO)Nc1nc(N)nc2cc(-c3cc(=O)n(C)cc3CN3CCNCC3)cnc12 [Example 5] | 2.72 | > 100 | > 100 | – | – | – | – | – | – | – | – | – | – | – | –
CCCC[C@](C)(CO)Nc1nc(N)nc2cc(F)cnc12 [Comparative compounds, (R)-2-((2-amino-7-fluoropyrido[3,2-d]pyrimidin-4-yl)amino)-2-methylhexan-1-ol, reference compound] | – | – | – | 3.6 | 24.5 | 9.5 | 15.8 | 2.6 | 3.3 | – | – | – | – | – | –
C=CCCN(C)Cc1c[nH]c(=O)cc1-c1cnc2c(N[C@@](C)(CO)CCCC)nc(N)nc2c1 [Example 9, (R)-4-(2-Amino-4-((1-hydroxy-2-methylhexan-2-yl)amino)pyrido[3,2-d]pyrimidin-7-yl)-5-((but-3-en-1-yl(methyl)amino)methyl)pyridin-2(1H)-one] | 0.02 | – | 31.8 | 1.3 | 4.2 | 4.2 | 2.0 | 1.0 | 24.7 | > 100 | – | – | – | – | –
CCCC[C@](C)(CO)Nc1nc(N)nc2cc(-c3cc(=O)[nH]cc3CN(C)CCOC)ccc12 [Example 54, (R)-4-(2-Amino-4-((1-hydroxy-2-methylhexan-2-yl)amino)quinazolin-7-yl)-5-(((2-methoxyethyl)(methyl)amino)methyl)pyridin-2(1H)-one] | 0.106 | – | > 100 | – | – | – | – | – | – | > 100 | 7.9 | 22.5 | 8.9 | 12.5 | 0.8
